Laboratory results published in ChEMBL document CHEMBL5291721, “A preclinical secondary pharmacology resource illuminates target-adverse drug reaction associations of marketed drugs” (Nat Commun, 2023).

What was measured:
[1] = biological target: T1, Muscarinic acetylcholine receptor M1 (Homo sapiens, UniProt P11229); format: functional
T1 sequence (P11229 whole entry): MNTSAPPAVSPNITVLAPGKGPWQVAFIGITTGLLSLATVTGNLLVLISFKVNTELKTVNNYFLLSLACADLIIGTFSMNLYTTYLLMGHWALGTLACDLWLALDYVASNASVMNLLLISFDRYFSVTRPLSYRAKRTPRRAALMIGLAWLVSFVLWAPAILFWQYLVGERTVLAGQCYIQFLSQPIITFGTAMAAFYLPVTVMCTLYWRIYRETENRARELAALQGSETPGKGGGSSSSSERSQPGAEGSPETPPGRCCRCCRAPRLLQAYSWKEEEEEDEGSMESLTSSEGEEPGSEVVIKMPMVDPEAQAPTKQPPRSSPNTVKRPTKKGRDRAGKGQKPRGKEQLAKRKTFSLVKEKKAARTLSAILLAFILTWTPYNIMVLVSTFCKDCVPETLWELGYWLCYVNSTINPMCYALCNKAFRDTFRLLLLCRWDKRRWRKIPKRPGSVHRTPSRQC

[2] = biological target: Beta-1 adrenergic receptor (Homo sapiens, UniProt P08588); format: functional
Sequence of Beta-1 adrenergic receptor (P08588 whole entry): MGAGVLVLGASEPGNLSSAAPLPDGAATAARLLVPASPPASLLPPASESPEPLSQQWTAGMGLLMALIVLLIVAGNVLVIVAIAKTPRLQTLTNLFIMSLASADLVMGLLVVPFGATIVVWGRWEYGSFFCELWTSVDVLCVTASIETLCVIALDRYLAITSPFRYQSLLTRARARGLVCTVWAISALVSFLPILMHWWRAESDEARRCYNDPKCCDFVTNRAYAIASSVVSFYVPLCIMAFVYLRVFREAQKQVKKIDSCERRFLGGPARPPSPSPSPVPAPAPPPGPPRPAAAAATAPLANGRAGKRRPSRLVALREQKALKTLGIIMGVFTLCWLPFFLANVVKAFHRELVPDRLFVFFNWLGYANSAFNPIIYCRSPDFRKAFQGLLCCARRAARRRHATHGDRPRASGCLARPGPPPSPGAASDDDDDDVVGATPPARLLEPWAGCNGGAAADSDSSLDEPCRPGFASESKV

[3] = biological target: T2, 5-hydroxytryptamine receptor 3A (Homo sapiens, UniProt P46098); format: functional
T2 sequence (P46098 whole entry): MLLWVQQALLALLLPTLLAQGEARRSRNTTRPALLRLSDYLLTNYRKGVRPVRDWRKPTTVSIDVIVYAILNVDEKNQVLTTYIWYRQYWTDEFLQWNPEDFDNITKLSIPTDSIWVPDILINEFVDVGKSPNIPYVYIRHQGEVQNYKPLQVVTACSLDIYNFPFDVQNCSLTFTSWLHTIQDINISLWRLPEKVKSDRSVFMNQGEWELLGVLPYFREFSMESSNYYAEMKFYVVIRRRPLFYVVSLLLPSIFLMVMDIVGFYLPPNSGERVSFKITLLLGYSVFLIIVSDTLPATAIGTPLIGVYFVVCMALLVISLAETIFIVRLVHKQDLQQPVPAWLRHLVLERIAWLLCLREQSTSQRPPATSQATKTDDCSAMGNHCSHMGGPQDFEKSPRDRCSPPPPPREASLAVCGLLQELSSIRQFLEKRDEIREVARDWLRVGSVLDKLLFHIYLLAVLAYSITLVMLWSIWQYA

[4] = biological target: T3, Progesterone receptor (Homo sapiens, UniProt P06401); format: functional
T3 sequence (P06401 whole entry): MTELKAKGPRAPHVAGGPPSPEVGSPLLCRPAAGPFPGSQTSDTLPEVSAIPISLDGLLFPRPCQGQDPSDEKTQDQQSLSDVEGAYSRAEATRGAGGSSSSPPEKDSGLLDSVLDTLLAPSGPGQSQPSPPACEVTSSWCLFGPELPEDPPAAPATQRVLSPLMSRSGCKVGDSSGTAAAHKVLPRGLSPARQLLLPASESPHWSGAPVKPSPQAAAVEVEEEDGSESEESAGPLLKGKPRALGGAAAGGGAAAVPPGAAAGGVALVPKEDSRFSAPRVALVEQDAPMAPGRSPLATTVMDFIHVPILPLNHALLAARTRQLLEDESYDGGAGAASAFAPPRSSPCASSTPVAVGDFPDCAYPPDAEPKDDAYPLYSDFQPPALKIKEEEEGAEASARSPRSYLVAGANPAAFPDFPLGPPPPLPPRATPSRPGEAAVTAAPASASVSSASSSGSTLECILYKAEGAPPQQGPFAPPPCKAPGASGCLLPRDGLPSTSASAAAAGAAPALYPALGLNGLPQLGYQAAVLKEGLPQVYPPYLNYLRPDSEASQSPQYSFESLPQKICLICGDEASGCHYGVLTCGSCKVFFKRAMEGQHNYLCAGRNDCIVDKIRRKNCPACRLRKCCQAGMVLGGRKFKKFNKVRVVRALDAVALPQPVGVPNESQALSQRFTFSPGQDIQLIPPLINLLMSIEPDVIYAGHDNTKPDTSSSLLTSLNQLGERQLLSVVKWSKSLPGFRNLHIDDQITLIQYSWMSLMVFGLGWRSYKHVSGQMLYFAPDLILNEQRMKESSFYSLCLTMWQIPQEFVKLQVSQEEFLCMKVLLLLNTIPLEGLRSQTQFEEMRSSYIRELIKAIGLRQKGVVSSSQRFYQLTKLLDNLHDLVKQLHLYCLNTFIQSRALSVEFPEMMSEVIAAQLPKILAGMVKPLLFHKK

[5] = biological target: T4, Adenosine receptor A1 (Homo sapiens, UniProt P30542)
T4 sequence (P30542 whole entry): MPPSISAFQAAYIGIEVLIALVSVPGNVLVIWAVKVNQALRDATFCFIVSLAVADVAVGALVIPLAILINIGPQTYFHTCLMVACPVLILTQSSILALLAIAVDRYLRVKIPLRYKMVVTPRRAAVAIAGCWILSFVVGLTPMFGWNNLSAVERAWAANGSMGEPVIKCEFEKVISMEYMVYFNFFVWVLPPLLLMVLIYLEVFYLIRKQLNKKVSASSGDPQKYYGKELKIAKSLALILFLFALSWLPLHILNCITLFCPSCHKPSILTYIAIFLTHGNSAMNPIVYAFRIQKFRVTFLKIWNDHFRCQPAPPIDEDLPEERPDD

[6] = biological target: T5, Alpha-2A adrenergic receptor (Homo sapiens, UniProt P08913); format: functional, cell-based
T5 sequence (P08913 whole entry): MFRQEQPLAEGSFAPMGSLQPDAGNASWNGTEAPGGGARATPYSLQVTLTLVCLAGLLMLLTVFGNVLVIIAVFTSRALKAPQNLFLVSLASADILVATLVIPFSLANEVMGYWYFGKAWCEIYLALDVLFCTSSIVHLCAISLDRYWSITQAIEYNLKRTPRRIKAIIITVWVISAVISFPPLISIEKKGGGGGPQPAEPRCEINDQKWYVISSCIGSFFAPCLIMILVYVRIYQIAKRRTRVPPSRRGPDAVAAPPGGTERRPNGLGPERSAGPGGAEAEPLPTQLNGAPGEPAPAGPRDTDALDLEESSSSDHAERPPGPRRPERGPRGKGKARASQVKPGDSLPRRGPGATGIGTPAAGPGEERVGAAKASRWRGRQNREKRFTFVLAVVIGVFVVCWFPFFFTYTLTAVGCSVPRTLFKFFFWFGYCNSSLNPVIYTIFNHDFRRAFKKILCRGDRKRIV

[7] = biological target: Cannabinoid receptor 1 (Homo sapiens, UniProt P21554); format: functional, cell-based
Sequence of Cannabinoid receptor 1 (P21554 whole entry): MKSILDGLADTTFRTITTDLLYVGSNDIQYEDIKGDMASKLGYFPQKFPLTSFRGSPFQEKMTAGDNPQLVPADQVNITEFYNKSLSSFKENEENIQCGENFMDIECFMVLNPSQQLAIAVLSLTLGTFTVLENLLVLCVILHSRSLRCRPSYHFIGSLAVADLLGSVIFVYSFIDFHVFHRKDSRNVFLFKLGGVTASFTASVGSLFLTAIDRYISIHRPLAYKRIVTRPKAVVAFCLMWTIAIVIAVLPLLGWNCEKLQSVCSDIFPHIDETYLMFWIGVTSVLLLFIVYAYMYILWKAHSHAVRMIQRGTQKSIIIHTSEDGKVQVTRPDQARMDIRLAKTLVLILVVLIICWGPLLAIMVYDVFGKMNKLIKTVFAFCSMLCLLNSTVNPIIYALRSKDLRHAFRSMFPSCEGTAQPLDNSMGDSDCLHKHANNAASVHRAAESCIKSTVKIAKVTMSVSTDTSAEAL
Note: assay procedure not described here.

SMILES | AC50 [1] [µM] | AC50 [2] [µM] | AC50 [3] [µM] | AC50 [4] [µM] | AC50 [5] [µM] | AC50 [6] [µM] | AC50 [7] [µM]
CC(C)(C)C(=O)Oc1ccc(S(=O)(=O)Nc2ccccc2C(=O)NCC(=O)O)cc1 | > 30 | > 30 | > 30 | > 30 | > 30 | > 30 | > 30
COc1ccccc1N1CCN(CCCNc2cc(=O)n(C)c(=O)n2C)CC1 | > 30 | – | > 30 | > 30 | > 30 | > 30 | > 30
CCC(C(=O)O)c1ccc(N2Cc3ccccc3C2=O)cc1 (stereo unspecified) [INDOBUFEN] | > 30 | > 30 | > 30 | > 30 | > 30 | > 30 | > 30
CCCCCCOc1ccccc1C(N)=O [EXALAMIDE] | > 30 | > 30 | > 30 | > 30 | > 30 | 13 | > 30
CC(C)C(=O)c1c(C(C)C)nn2ccccc12 [IBUDILAST] | > 30 | > 30 | > 30 | > 30 | 20 | > 30 | > 30
Cc1ccc(-n2nccn2)c(C(=O)N2CCN(c3nc4cc(Cl)ccc4o3)CC[C@H]2C)c1 [SUVOREXANT] | > 30 | > 30 | > 30 | > 30 | > 30 | > 30 | > 30
OC(CNCC(O)C1CCc2cc(F)ccc2O1)C1CCc2cc(F)ccc2O1 (stereo unspecified) [NEBIVOLOL] | 19 | – | > 30 | > 30 | > 30 | > 30 | > 30
CCC1(CC)C(=O)NCC(C)C1=O (stereo unspecified) [METHYPRYLON] | > 30 | > 30 | > 30 | > 30 | > 30 | > 30 | > 30
CC(CC(c1ccccc1)c1ccccc1)NC(C)(C)C (stereo unspecified) [TERODILINE] | 1.4 | > 30 | > 30 | > 30 | > 30 | > 30 | > 30
CCOC(=O)[N-]c1cn(N2CCOCC2)n[o+]1 [MOLSIDOMINE] | > 30 | > 30 | > 30 | > 30 | > 30 | > 30 | > 30
O=C(O)/C=C/c1ccc(Cn2ccnc2)cc1 [OZAGREL] | > 30 | > 30 | > 30 | > 30 | > 30 | > 30 | > 30
CO/N=C(\C(=O)N[C@@H]1C(=O)N2C(C(=O)O)=C(CSc3nnnn3C)CS[C@H]12)c1csc(N)n1 [CEFMENOXIME] | > 30 | > 30 | – | 1.8 | > 30 | > 30 | > 30
COc1ccc2c3c1O[C@H]1C(=O)CC[C@@]4(O)[C@@H](C2)N(C)CC[C@]314 [OXYCODONE] | > 30 | > 30 | > 30 | > 30 | > 30 | > 30 | > 30
O=C(O)CCCCCCNC1c2ccccc2CCc2ccccc21 [AMINEPTINE] | > 30 | > 30 | > 30 | > 30 | > 30 | > 30 | > 30
Clc1ccc(CCCOCCCN2CCCCC2)cc1 [PITOLISANT] | > 30 | > 30 | > 30 | > 30 | > 30 | – | > 30
O=C(NCCNCC(O)COc1ccc(O)cc1)N1CCOCC1 (stereo unspecified) [XAMOTEROL] | > 30 | – | > 30 | > 30 | > 30 | > 30 | > 30
NCC(=O)CCC(=O)O [AMINOLEVULINIC ACID] | > 30 | > 30 | > 30 | > 30 | > 30 | > 30 | > 30
COC(=O)[C@H]1[C@H]2C[C@@H]3c4[nH]c5cc(OC)ccc5c4CCN3C[C@H]2C[C@@H](OC(=O)/C=C/c2cc(OC)c(OC)c(OC)c2)[C@@H]1OC [RESCINNAMINE] | > 10 | > 10 | > 30 | > 10 | > 30 | > 10 | –
Nc1nc(/C(=C/CC(=O)O)C(=O)N[C@@H]2C(=O)N3C(C(=O)O)=CCS[C@H]23)cs1 [CEFTIBUTEN] | > 30 | > 30 | > 30 | > 30 | > 30 | > 30 | –
COc1ccccc1OCCNCC(O)c1ccc(C)c(S(N)(=O)=O)c1 (stereo unspecified) [AMOSULALOL] | > 30 | 0.06 | > 30 | > 30 | > 30 | > 30 | > 30
C[C@H](CSC(=O)c1ccccc1)C(=O)N1C[C@@H](Sc2ccccc2)C[C@H]1C(=O)O [ZOFENOPRIL] | > 10 | > 10 | > 30 | > 10 | > 10 | > 10 | –
CC(C)=CCC/C(C)=C/C=C/C(C)=C/C=C/C(C)=C/C=C/C=C(C)/C=C/C=C(C)/C=C/C=C(\C)CCC=C(C)C [LYCOPENE] | > 30 | > 30 | > 30 | 6.2 | > 30 | > 30 | –
C[C@H](N)[C@H](O)c1cccc(O)c1 [METARAMINOL] | > 10 | 14.3 | > 30 | > 10 | > 10 | > 10 | –
